Data as given in BindingDB's records for patent US20230348424 (Schrödinger, 2023).

Key:
[1] = molecular target: T1, Son of sevenless homolog 1 [564-1049] (Human, UniProt Q07889); experiment: Surface Plasmon Resonance (SPR) SOS1 Binding AssaySurface Plasmon Resonance (SPR) SOS1 Binding Assay
T1 construct: 564-1049
T1 sequence (Q07889 whole entry): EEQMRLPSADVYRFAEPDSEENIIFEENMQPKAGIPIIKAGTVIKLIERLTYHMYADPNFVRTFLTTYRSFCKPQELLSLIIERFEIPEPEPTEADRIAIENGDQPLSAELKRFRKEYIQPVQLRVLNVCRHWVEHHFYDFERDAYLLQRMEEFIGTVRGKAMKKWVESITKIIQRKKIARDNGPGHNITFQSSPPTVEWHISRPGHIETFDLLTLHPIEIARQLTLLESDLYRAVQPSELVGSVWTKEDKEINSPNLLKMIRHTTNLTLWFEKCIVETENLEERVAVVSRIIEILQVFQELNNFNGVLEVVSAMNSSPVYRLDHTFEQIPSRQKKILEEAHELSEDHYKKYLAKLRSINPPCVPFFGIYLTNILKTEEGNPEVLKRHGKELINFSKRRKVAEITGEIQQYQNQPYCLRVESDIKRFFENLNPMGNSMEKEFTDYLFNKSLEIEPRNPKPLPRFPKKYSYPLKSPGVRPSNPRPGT
Procedure: Binding to SOS1 was measured using a SPR assay with purified recombinant human SOS1 substrate (res. 564-1049 with N-terminal Avi tag; purified and biotinylated based on Hillig, et al., Proc Natl Acad Sci USA (2019); 116(7):2551-2560). SPR measurements were performed on a Biacore 8K SPR instrument (GE Healthcare, Sweden). Assays were performed at 25° C. using Series S SA sensor chips pre-coated with streptavidin (GE Healthcare, Cat. BR100531). Biotinylated SOS1 diluted in sample buffer (20 mM Tris HCI, 150 mM NaCl, 1 mM DTT, 0.05% TWEEN 20, 1 mM MgCh, pH 8.0) was captured to one flow cell of the chip to about 3,000 resonance units (RU) using sample buffer supplemented with 5% DMSO as a running buffer. Serial dilutions of the assayed compounds in the running buffer at 100, 50 or 0.5 µM were injected for 60 s at a flow rate of 30 µL/min and association phases were recorded. Dissociation of the samples was monitored for 600 s. Data processing was performed using Biacore Insight Software (Biacore, GE Healthcare). Sensorgrams recorded on a SA flow cell without captured protein were subtracted from sensorgrams recorded on the SOS1 surface. Blank injections of running buffer were used for double referencing and solvent correction was applied to all sample sensorgrams to correct for buffer mismatches. KDS were estimated using a kinetic or steady state, where applicable, fitting model describing a reversible equilibrium with 1:1 binding between SOS1 and the compound.

[2] = molecular target: T2, Son of sevenless homolog 1 [564-1049]/GTPase KRas [G12C] (UniProt Q07889); experiment: SOS1 KRas(G12C) FRET Assay
T2 construct: 564-1049
Procedure: A 2x KRAS working solution was prepared in an assay buffer containing 5 nM GST-KRAS G12C and 2 nM anti-GST-Eu(K) (Cisbio, Cat. 61GSTKLA) and pre-incubated for 15 minutes at 25° C. […] The final DMSO concentration is 0.5%. […] FRET signal was converted to percentage of protein-protein interaction using the following equation:%Inhibition=100%-C-N/P-N*100%C: signal with compound treatmentP: signal for positive control (DMSO)N: signal for negative control (no SOS1 added).

T2 sequence (P01116 whole entry G12C, one chain of several): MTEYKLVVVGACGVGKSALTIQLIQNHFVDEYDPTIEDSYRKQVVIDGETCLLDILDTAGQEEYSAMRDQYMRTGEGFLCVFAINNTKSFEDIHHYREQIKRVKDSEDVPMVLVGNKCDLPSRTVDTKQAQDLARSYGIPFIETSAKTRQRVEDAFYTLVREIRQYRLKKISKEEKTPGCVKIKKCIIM

Row | Kd [1] [nM] | IC50 [2] [nM] | Compound
1 | 6 |  | Cc1c([C@@H](C)NC(=O)c2cn(C3CCOCC3)c(=O)cc2NC2CCN(C)CC2)cccc1C(F)(F)F [US20230348424, Example 1]
2 | 12 |  | C[C@@H](NC(=O)c1cn(C23CC(C2)C3)c(=O)cc1N[C@H]1[C@@H]2CNC[C@@H]21)c1cccc(C(F)F)c1F [US20230348424, Example 89]
3 | 24 | 35.7 | C[C@@H](NC(=O)c1cn(C2(C(F)(F)F)CC2)c(=O)cc1N[C@H]1[C@@H]2CN(C)C[C@@H]21)c1cccc(C(F)(F)F)c1F [US20230348424, Example 120]
